pIC50: −log10 of the molar value. *: point of attachment. AMC = Cc1cc(=O)oc2cc(N*)ccc12
Columns and labels:
[1] = test system: HCT116 cells; experiment: HCT116 cellular toxicity (CellTiter-Glo, 72 h); type: cell-based, human; details: for HCT116 LD50 (72 h): 72 h incubation, mean ± SEM or half range, 2–4 experiments; for HCT116 LD50 (72-h): supplement CSV
Experimental: HCT-116 and HepG2 cells were obtained from the American Type Culture Collection and maintained as recommended by the supplier. Cells were cultured in the ATCC-formulated McCoy’s 5A medium or DMEM (Life Technologies, CA), supplemented with fetal bovine serum to a final concentration of 9–10%, and incubated at 37 °C in an atmosphere of 95% air and 5% CO2. Cellular toxicity assays were performed using Promega’s CellTiter-Glo assay system. Varying concentrations of the test compounds in 5% DMSO/95% PBS were dispensed into a 384-well plate and cells added to each well. The plates were incubated at 37 °C for 72 h, and the CellTiter-Glo assay to assess cell viability was performed as described by the manufacturer (Promega).
For human cell line activity assays, cellular toxicity assays were performed as described previously.[23],[48]

[2] = test system: HepG2 cells; experiment: HepG2 cellular toxicity (CellTiter-Glo, 72 h); type: cell-based, human; details: for HepG2 LD50 (72 h): 72 h incubation, mean ± SEM or half range, 2–4 experiments; for HepG2 LD50( 72-h): supplement CSV
[3] = test system: P. falciparum Cam3.II^Rev; experiment: 3 h pulsed exposure viability assay, K13 wild-type revertant early rings; type: cell-based, Plasmodium falciparum; details: for Cam3.II^Rev LD50 (3 h): early ring (1–3 h p.i.), 3 h pulse, viability in next cycle, mean ± SEM, n=3; for Cam3.IIRev LD50 (3-h): supplement CSV
Experimental: (§1) For standard assays of antiplasmodial activity, sorbitol-treated ring stage parasites were incubated with the drugs for 72 h and viability was assessed in the second cycle.[12] Drug pulse assays were performed as described previously.[47] For short pulse assays, tightly synchronized early ring stage parasites (1–3 h after invasion) at 0.2% hematocrit and 1–2% parasitemia were subjected to 3 h drug pulse at 37 °C and returned to culture until parasites reached trophozoite stage of the following cycle. Cells were then stained with 2 μM Syto-61 (Thermo Fisher Scientific), and their fluorescence was measured by flow cytometry (FACSCanto II cytometer; Becton Dickinson). Data were gated and analyzed using FCS Express software (version 3) to determine parasitemia of each sample. Viability represents the parasitemia normalized to untreated and “kill treated” controls, where “kill treated” refers to samples treated with 2 μM DHA for 48–72 h. Interactions between DHA and MPI-1 or MPI-4 against the K13 mutant (DHA resistant) Cam3.II P. falciparum strain, exposed to a 3 h pulsed treatment, were determined at 4 h after invasion as described previously.[12]

[4] = test system: P. falciparum 3D7 parasites; experiment: Standard 72 h antiplasmodial viability assay, 3D7; type: cell-based, Plasmodium falciparum; details: for Pf3D7 LD50 (72 h): sorbitol-treated ring stage, viability in next cycle (~72 h), mean ± SEM, n=3; for Pf3D7 LD50 (72-h): supplement CSV
Experimental: P. falciparum parasites used in this study were propagated in O+ human erythrocytes (Australian Red Cross Blood Service) in RPMI-1640, supplemented with GlutaMAX, 25 mM HEPES (Thermo Fisher Scientific), 5% (v/v) human serum (Australian Red Cross Blood Service), 0.25% (w/v) AlbuMAX II (Thermo Fisher Scientific), 10 μM D-glucose, 22 μg/mL gentamycin (Sigma-Aldrich), and 0.5 mM hypoxanthine (Sigma-Aldrich) and incubated at 37 °C in an atmosphere of 1% O2, 5% CO2, and 94% N2. Cultures were monitored by Giemsa staining of methanol-fixed blood smears. Culture medium was replaced at least every 48 h, and parasitemia was maintained below 10% to ensure health of cultures. The GFP-DD reporter strain was kindly provided by Dr. Paul Gilson, Dr. Brendan Crabb, and Dr. Mauro F. Azevedo (Burnet Institute).
as §1

[5] = test system: human constitutive proteasome and immunoproteasome catalytic subunits; experiment: BMV037 active site probe competition, purified human 20S proteasomes; type: biochemical; details: for subunit specificity by BMV037 probe labeling, human constitutive proteasome and immunoproteasome: compounds 1 h, probe 2 h
[6] = test system: Pf20S proteasome subunits of bortezomib-resistant parasites; experiment: BMV037 active site probe competition, bortezomib-resistant parasites; type: biochemical, P. falciparum; details: compounds 1 h
Experimental: Figure 3 Active site probe analysis of the proteasome subunit specificity of the selected compounds in 3D7 parent and bortezomib-resistant parasites. Purified Pf20S proteasome from wild-type 3D7 (A) and bortezomib-resistant (C) parasites or wild-type 3D7 (B) and bortezomib-resistant (D) trophozoite-infected erythrocytes were treated with compounds for 1 h, and activity-based probe (BMV037) labeling was performed (postlysis for the trophozoite samples). Fluorescent gel scans reveal subunits that remain active after treatment.
P. falciparum culture, purified Pf20S proteasomes, human constitutive proteasomes, or immunoproteasomes (Boston Biochem) were incubated with test compounds at 37 °C for 1 h. Treated parasite lysates (10 μg), Pf20S proteasomes (80 nM), human constitutive proteasomes (20 nM), or immuno-20S proteasomes (20 nM) were labeled with BMV037 (10 μM) at 37 °C for 2 h. Samples were mixed with SDS loading buffer and heated at 95 °C for 5 min. Samples for P. falciparum and human immuno-20S were run on 4–12% Bis-Tris acrylamide gels using MES SDS running buffer (Thermo Fisher Scientific). Human constitutive 20S samples were run on a 10% Bis-Tris acrylamide gel using MOPS SDS running buffer (Thermo Fisher Scientific). Gels were imaged at the Cy5 channel on a Gel Doc XR+ Documentation System (Bio-Rad) or an Amersham Typhoon Trio imager (GE Healthcare Life Sciences).

[7] = test system: P. falciparum Cam3.II^R539T; experiment: 3 h pulsed exposure viability assay, K13 mutant early rings; type: cell-based, Plasmodium falciparum; details: for Cam3.II^R539T LD50 (3 h): early ring (1–3 h p.i.), 3 h pulse, viability in next cycle, mean ± SEM, n=3; for Cam3.IIR539T LD50 (3-h): supplement CSV
Experimental: as §1

[8] = test system: bortezomib-resistant 3D7 B1 line (clone B1a); experiment: 72 h viability assay, bortezomib-resistant B1 line / clone B1a; type: cell-based, Plasmodium falciparum; details: for cross-resistance of the bortezomib-resistant parasite line (B1): growth inhibition, versus 3D7; for bortezomib-resistant 3D7 B1 line LD50 (72 h): ring stage, mean ± SEM, n=3; for Bortezomib-resistant3D7 B1 LD50 (72-h): supplement CSV
Experimental: as §1
Prior to selection, an aliquot of the parental line was stocked as a reference for subsequent whole genome sequencing analysis. Several independent clones of P. falciparum 3D7 parasite line were cultured in Petri dishes exposed to increasing drug pressure for ∼30 weeks. Parasites were cloned by limiting dilution. For parasite extraction and genomic DNA isolation, cultures were scaled up to at least 4–5% parasitaemia, lysed in saponin, and genomic DNA was isolated using ISOLATE II Genomic DNA kit (Bioline). DNA libraries for each gDNA sample were prepared for sequencing using the Nextera XT kit as described previously.[50] Libraries were clustered and run on an Illumina HiSeq 2500 using the RapidRun mode, sequencing 100 base pairs in depth on either end. Paired-end reads were either aligned to the P. falciparum 3D7 reference genome (PlasmoDB version 13.0).

[9] = test system: Pf20S proteasome β1, β2, β5 subunits; type: biochemical, P. falciparum; details: compounds 1 h, purified Pf20S or infected erythrocytes
[10] = target: Plasmodium falciparum 20S proteasome β5 (Plasmodium falciparum, UniProt A0A5K1K7U1+Q8IJT1); experiment: Pf20S proteasome fluorogenic assay, chymotrypsin-like activity (Ac-WLA-AMC); type: biochemical; details: 0.8 μM carfilzomib
[11] = target: Plasmodium falciparum 20S proteasome β1 (Plasmodium falciparum, UniProt Q8I0U7+Q8I6T3); type: biochemical
[12] = target: Plasmodium falciparum 20S proteasome β2 (Plasmodium falciparum, UniProt Q8I261+Q8I6T3); type: biochemical
[13] = target: T1, human proteasome β2 (Homo sapiens, UniProt P49720+Q99436); experiment: Validation of resynthesized Ac-P3-P2-P1-AMC substrates, human proteasome; type: biochemical; details: 10 μM
T1 construct: purchased Boston Biochem
Experimental: (§2) AMC (10 μM) was used as the fluorescence standard. Pf20S reaction condition: Pf20S (1 nM), human PA28 αβ (24 nM), in 50 mM Tris, pH 7.5, 5 mM MgCl2, 1 mM DTT, 0.01% BSA. Human 20S reaction condition: 0.25 nM human constitutive proteasome or immunoproteasome (Boston Biochem), PA28 αβ (24 nM) in 20 mM HEPES, pH 7.4, 0.5 mM EDTA, 0.01% BSA. The assays were read in kinetic mode at 37 °C using a BMG PHERAstar plate reader, and the rate data were normalized to activity obtained using the Ac-WLR-AMC substrate (=1000 units). For validation of substrate preferences, relevant Ac-P3-P2-P1-AMC substrates were resynthesized by CPC Scientific, CA, USA, and assayed for activity against human and P. falciparum 20S proteasomes in 96-well plates (80 μL reaction, 10 μM substrate) under the same reaction condition.

[14] = test system: Pf20S proteasome; experiment: Validation of resynthesized Ac-P3-P2-P1-AMC substrates, Pf20S; type: biochemical, P. falciparum; details: 10 μM
Experimental: as §2

Plasmodium falciparum 20S proteasome β2, sequence (Q8I261 entry or part of it): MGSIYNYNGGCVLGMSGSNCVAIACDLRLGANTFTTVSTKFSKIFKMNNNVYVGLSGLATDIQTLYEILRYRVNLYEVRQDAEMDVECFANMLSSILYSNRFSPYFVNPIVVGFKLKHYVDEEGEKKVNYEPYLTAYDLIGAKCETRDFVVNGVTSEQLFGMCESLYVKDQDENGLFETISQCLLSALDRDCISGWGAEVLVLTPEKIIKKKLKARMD
Plasmodium falciparum 20S proteasome β2, sequence (Q06323 whole entry, further chain): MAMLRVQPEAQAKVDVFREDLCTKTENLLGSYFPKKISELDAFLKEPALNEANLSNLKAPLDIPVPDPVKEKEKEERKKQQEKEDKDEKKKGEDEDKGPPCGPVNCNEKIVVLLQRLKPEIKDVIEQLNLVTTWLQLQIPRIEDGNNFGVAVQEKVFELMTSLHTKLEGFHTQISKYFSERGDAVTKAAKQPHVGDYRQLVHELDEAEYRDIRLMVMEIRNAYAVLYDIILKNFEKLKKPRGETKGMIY
Plasmodium falciparum 20S proteasome β2, sequence (Q8I6T3 entry or part of it): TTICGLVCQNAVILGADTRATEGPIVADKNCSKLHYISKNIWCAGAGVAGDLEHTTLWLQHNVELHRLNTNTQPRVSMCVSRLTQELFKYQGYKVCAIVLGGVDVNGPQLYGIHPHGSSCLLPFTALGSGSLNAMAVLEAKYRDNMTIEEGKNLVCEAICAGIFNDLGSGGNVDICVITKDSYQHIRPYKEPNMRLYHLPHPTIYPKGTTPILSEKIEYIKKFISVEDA
Plasmodium falciparum 20S proteasome β2, sequence (Q9UL46 2-239, further chain): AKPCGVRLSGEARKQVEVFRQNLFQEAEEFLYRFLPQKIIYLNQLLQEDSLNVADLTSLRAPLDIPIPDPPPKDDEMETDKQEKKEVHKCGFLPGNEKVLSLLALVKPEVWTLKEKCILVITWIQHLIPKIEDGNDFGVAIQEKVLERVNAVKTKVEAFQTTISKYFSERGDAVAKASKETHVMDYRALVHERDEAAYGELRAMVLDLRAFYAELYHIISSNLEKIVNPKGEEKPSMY
Plasmodium falciparum 20S proteasome β5, sequence (Q9UL46 2-239): as the sequence (Q9UL46 2-239, further chain) above
Plasmodium falciparum 20S proteasome β5, sequence (A0A5K1K7U1 entry or part of it): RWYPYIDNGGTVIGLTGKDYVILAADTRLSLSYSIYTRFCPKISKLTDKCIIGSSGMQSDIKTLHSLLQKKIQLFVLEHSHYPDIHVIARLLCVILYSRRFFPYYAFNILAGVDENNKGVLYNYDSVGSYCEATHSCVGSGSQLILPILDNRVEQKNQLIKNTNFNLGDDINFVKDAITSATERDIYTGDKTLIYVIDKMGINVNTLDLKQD
Plasmodium falciparum 20S proteasome β5, sequence (Q06323 whole entry, further chain): as the sequence (Q06323 whole entry, further chain) above
Plasmodium falciparum 20S proteasome β5, sequence (Q8IJT1 entry or part of it): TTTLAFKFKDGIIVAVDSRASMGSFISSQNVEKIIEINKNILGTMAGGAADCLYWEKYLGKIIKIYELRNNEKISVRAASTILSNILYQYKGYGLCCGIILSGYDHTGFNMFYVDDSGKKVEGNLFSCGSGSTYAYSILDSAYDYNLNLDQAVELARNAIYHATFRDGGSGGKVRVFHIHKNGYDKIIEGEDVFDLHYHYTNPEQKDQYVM
Plasmodium falciparum 20S proteasome β1, sequence (Q9UL46 2-239): as the sequence (Q9UL46 2-239, further chain) above
Plasmodium falciparum 20S proteasome β1, sequence (Q8I0U7 entry or part of it): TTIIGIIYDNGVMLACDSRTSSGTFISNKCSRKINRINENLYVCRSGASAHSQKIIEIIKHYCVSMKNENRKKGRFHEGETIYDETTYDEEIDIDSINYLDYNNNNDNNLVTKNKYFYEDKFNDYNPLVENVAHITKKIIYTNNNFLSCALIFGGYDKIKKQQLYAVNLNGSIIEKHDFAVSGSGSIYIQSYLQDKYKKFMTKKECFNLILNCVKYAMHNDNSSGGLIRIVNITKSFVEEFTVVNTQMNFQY
Plasmodium falciparum 20S proteasome β1, sequence (Q8I6T3 entry or part of it): as the sequence (Q8I6T3 entry or part of it) above
Plasmodium falciparum 20S proteasome β1, sequence (Q06323 whole entry, further chain): as the sequence (Q06323 whole entry, further chain) above

Molecule	HCT116 LD50 (72 h) [1] [µM]	HCT116 LD50 (72-h) [1] [µM]	HepG2 LD50 (72 h) [2] [µM]	HepG2 LD50( 72-h) [2] [µM]	Cam3.II^Rev LD50 (3 h) [3] [µM]	Cam3.IIRev LD50 (3-h) [3] [µM]	Pf3D7 LD50 (72 h) [4] [µM]	Pf3D7 LD50 (72-h) [4] [µM]	subunit specificity by BMV037 probe labeling, human constitutive proteasome and immunoproteasome [5]	Cam3.II^R539T LD50 (3 h) [7] [µM]	Cam3.IIR539T LD50 (3-h) [7] [µM]	cross-resistance of the bortezomib-resistant parasite line (B1) [8]	bortezomib-resistant 3D7 B1 line LD50 (72 h) [8] [µM]	Bortezomib-resistant3D7 B1 LD50 (72-h) [8] [µM]	subunit specificity by BMV037 probe labeling, wild-type 3D7 [9]	activity as substrate for Pf20S [14]	further results
CC(=O)N1CCC[C@H]1C(=O)N[C@@H](C)C(=O)N[C@@H](CC(C)C)B(O)O [MPI-2]	1.3 ± 0.3	1.3 ± 0.3	2.4 ± 0.73	2.4 ± 0.73	1.8 ± 0.2	1.8 ± 0.2	0.16 ± 0.02	0.16 ± 0.02	preferentially inhibited β1c and β5i	1.5 ± 0.2	1.5 ± 0.2	very strong cross-resistance	>2	> 2	preferentially inhibited binding of the probe to the β5 subunit	–	BMV037 labeling of the β5 active site in bortezomib-resistant parasites [6]: no longer able to prevent BMV037 labeling of the β5 active site
Cc1ccc(S(=O)(=O)N[C@@H](CC(=O)NCC(C)(C)C)C(=O)N[C@@H](Cc2ccccc2)C(=O)N[C@@H](CC(C)C)B(O)O)cc1 [MPI-3]	0.027 ± 0.002	0.027 ± 0.002	0.26 ± 0.06	0.26 ± 0.06	0.21 ± 0.03	0.21 ± 0.03	0.065 ± 0.004	0.065 ± 0.004	preferential inhibition of the β1 and β5 subunits	0.19 ± 0.03	0.19 ± 0.03	retained sensitivity	0.054 ± 0.007	0.054 ± 0.007	inhibited both β2 and β5 activities	–	pIC50 ([4]; Plasmodium falciparum, 3D7, dose–response profiles, n = 3, read-out: 50% viability inhibitory concentration against 3D7 parasites): ~7.22; BMV037 labeling of the human β1 and β5 subunits after treatment ([5]; 1 μM, especially constitutive proteasome): still evident; BMV037 competition profile in bortezomib-resistant parasites [6]: very similar in the bortezomib-resistant and wild-type parasites
CC(C)C[C@H](NC(=O)[C@H](CCc1ccccc1)NC(=O)CN1CCOCC1)C(=O)N[C@@H](Cc1ccccc1)C(=O)N[C@@H](CC(C)C)C(=O)[C@@]1(C)CO1 [carfilzomib]	–	–	–	–	–	–	–	–	–	–	–	–	–	–	–	–	Pf20S β5 activity with carfilzomib [10]: completely abrogated; inhibitory effect against Pf20S proteasome β1 activity [11]: only weak inhibitory effect; Pf20S β2 activity with carfilzomib [12]: completely abrogated
Ac-Arg-Gln-Arg-{AMC}	–	–	–	–	–	–	–	–	–	–	–	–	–	–	–	inactive	activity as substrate for human proteasome β2 [13]: good human proteasome β2 substrate
Ac-Lys-Trp-His-{AMC}	–	–	–	–	–	–	–	–	–	–	–	–	–	–	–	both active and selective for Pf20S	–
Ac-Trp-Trp-Lys-{AMC}	–	–	–	–	–	–	–	–	–	–	–	–	–	–	–	both active and selective for Pf20S	–

— paper PMC6257627, “Target Validation and Identification of Novel Boronate Inhibitors of the Plasmodium falciparum Proteasome” (Journal of Medicinal Chemistry, 2018)
